From patent EP0007672A1, “Isocyanoalkenes, process and useful intermediates for their preparation, pharmaceutical and fungicidal preparations containing those isocyanoalkenes and the use of the fungicidal preparations in agriculture” (GIST-BROCADES N.V., priority 1978, dated 1980)
≈ marks a conversion by molar mass, not a printed value. Read-outs that look alike come from different tables or passages of the source.

What was measured:
Assay in all cases: MIC (Minimum Inhibitory Concentration)
Type in all cases: cell-based
Candida albicans = test system: Candida albicans
Source text: (§1) In addition they may be used for combatting plant diseases, in particular as fungicides. A list of MIC (Minimum Inhibitory Concentration) values for a number of microorganisms is listed herebelow. The figures in the column headings refer to the compounds prepared according to the experimental examples in comparison with the spectrum of 1-[2-(2,4-dichlorophenyl)-2-{(2,4-dichlorophenyl)-methoxy} -ethyl7-1H-imidazole (better known under the name of miconazole, c.f. Merck Index 9th Ed. page 6047) or natamycin (pimaricin, c.f. Merck Index 9th Ed. page 7233).

Pasteurella multocida = conditions: read-out: MIC values
Source text: as §1

[1] = test system: Streptococcus haemolyticus; conditions: read-out: MIC values
Source text: as §1

Trichophyton equinum = test system: Trichophyton equinum
Source text: as §1

[2] = test system: Trichophyton mentagrophytus
Source text: as §1

Trichophyton quickeaneum = conditions: read-out: MIC values
Source text: as §1

Trichophyton rubrum = test system: Trichophyton rubrum
Source text: as §1

[3] = test system: Trichophyton schoenleinii; conditions: read-out: MIC values
Source text: as §1

Trichophyton tonsurans = conditions: read-out: MIC values
Source text: as §1

Trichophyton verrucosum = test system: Trichophyton verrucosum
Source text: as §1

Trichophyton violoceum = conditions: read-out: MIC values
Source text: as §1

[C-]#[N+]C(C1=CCCCCCC1)S(=O)(=O)c1ccc(C)cc1 (stereo not drawn) [Example 20, α-(cycloocten-1-yl)-α-(4-toluenesulphonyl) methylisocyanide]
MIC (Candida albicans; read-out: MIC values, Candida albicans A 7): 6 µg/mL (≈ 19.8 µM) | MIC (Candida albicans; read-out: MIC values, Candida albicans A 3140): 6 µg/mL (≈ 19.8 µM) | MIC (Candida albicans; read-out: MIC values, Candida albicans A 3141): 6 µg/mL (≈ 19.8 µM) | MIC (Candida albicans; read-out: MIC values, Candida albicans A 3142): 6 µg/mL (≈ 19.8 µM) | MIC (Candida albicans; read-out: MIC values, Candida albicans A 3143): 6 µg/mL (≈ 19.8 µM) | MIC (Candida albicans; read-out: MIC values, Candida albicans A 3144): 6 µg/mL (≈ 19.8 µM) | MIC (Candida albicans; read-out: MIC values, Candida albicans A 3145): 6 µg/mL (≈ 19.8 µM) | MIC (Candida albicans; read-out: MIC values, Candida albicans A 3165): 6 µg/mL (≈ 19.8 µM) | MIC (Candida albicans; read-out: MIC values, Candida albicans A 3166): 6 µg/mL (≈ 19.8 µM) | MIC (Candida albicans; read-out: MIC values, Candida albicans A 3167): 6 µg/mL (≈ 19.8 µM) | MIC (Candida albicans; read-out: MIC values, Candida albicans A 3168): 6 µg/mL (≈ 19.8 µM) | MIC (Candida albicans; read-out: MIC values, Candida albicans A 3169): 6 µg/mL (≈ 19.8 µM) | MIC (Candida albicans; read-out: MIC values, Candida albicans A 3171): 6 µg/mL (≈ 19.8 µM) | MIC (Candida albicans; read-out: MIC values, Candida albicans A 3184): 6 µg/mL (≈ 19.8 µM) | MIC (Candida albicans; read-out: MIC values, Candida albicans A 3190): 6 µg/mL (≈ 19.8 µM) | MIC (Candida albicans; read-out: MIC values, Candida albicans A 3191): 6 µg/mL (≈ 19.8 µM) | MIC (Candida albicans; read-out: MIC values, Candida albicans A 3192): 6 µg/mL (≈ 19.8 µM) | MIC (Candida albicans; read-out: MIC values, Candida albicans A 3194): 3 µg/mL (≈ 9.89 µM) | MIC (Candida albicans; read-out: MIC values, Candida albicans A 3196): 6 µg/mL (≈ 19.8 µM) | MIC (Pasteurella multocida; Pasteurella multocida): 50 µg/mL (≈ 165 µM) | MIC ([1]; Streptococcus): 12.5 µg/mL (≈ 41.2 µM) | MIC (Trichophyton equinum; read-out: MIC values, Trichophyton equinum 182-76): 50 µg/mL (≈ 165 µM) | MIC (Trichophyton equinum; read-out: MIC values, Trichophyton equinum 441-51): 12.5 µg/mL (≈ 41.2 µM) | MIC ([2]; read-out: MIC values, Trichophyton mentagrophytus 367-68): 50 µg/mL (≈ 165 µM) | MIC ([2]; read-out: MIC values, Trichophyton mentagrophytus 421-67): 100 µg/mL (≈ 330 µM) | MIC ([2]; read-out: MIC values, Trichophyton mentagrophytus A 3252): 25 µg/mL (≈ 82.4 µM) | MIC ([2]; read-out: MIC values, Trichophyton mentagrophytus R 177): 50 µg/mL (≈ 165 µM) | MIC ([2]; read-out: MIC values, Trichophyton mentagrophytus R 178): > 100 µg/mL | MIC (Trichophyton quickeaneum; Trichophyton): 25 µg/mL (≈ 82.4 µM) | MIC (Trichophyton rubrum; read-out: MIC values, Trichophyton rubrum 218-65): 12.5 µg/mL (≈ 41.2 µM) | MIC (Trichophyton rubrum; read-out: MIC values, Trichophyton rubrum 494-62): 12.5 µg/mL (≈ 41.2 µM) | MIC (Trichophyton rubrum; read-out: MIC values, Trichophyton rubrum A 810): 100 µg/mL (≈ 330 µM) | MIC ([3]; Trichophyton schoenleinii): 12.5 µg/mL (≈ 41.2 µM) | MIC (Trichophyton tonsurans; Trichophyton tonsurans): 0.75 µg/mL (≈ 2.47 µM) | MIC (Trichophyton verrucosum; read-out: MIC values, Trichophyton verrucosum 134-66): 6 µg/mL (≈ 19.8 µM) | MIC (Trichophyton verrucosum; read-out: MIC values, Trichophyton verrucosum A 2922): 6 µg/mL (≈ 19.8 µM) | MIC (Trichophyton violoceum; Trichophyton): 12.5 µg/mL (≈ 41.2 µM)

[C-]#[N+]C(C1=CCOCC1)S(=O)(=O)c1ccc(C)cc1 (stereo not drawn) [Example 14b, α-(2,3-dihydro-6H-pyran-4-yl)-a-(4-toluenesulphonyl)-methylisocyanide]
MIC (Candida albicans; Candida albicans A 7, read-out: MIC values): 6 µg/mL (≈ 21.6 µM) | MIC (Candida albicans; Candida albicans A 3140, read-out: MIC values): 6 µg/mL (≈ 21.6 µM) | MIC (Candida albicans; Candida albicans A 3141, read-out: MIC values): 12.5 µg/mL (≈ 45.1 µM) | MIC (Candida albicans; Candida albicans A 3142, read-out: MIC values): 6 µg/mL (≈ 21.6 µM) | MIC (Candida albicans; Candida albicans A 3143, read-out: MIC values): 6 µg/mL (≈ 21.6 µM) | MIC (Candida albicans; Candida albicans A 3144, read-out: MIC values): 25 µg/mL (≈ 90.1 µM) | MIC (Candida albicans; Candida albicans A 3145, read-out: MIC values): 12.5 µg/mL (≈ 45.1 µM) | MIC (Candida albicans; Candida albicans A 3165, read-out: MIC values): 6 µg/mL (≈ 21.6 µM) | MIC (Candida albicans; Candida albicans A 3166, read-out: MIC values): 6 µg/mL (≈ 21.6 µM) | MIC (Candida albicans; Candida albicans A 3167, read-out: MIC values): 6 µg/mL (≈ 21.6 µM) | MIC (Candida albicans; Candida albicans A 3168, read-out: MIC values): 6 µg/mL (≈ 21.6 µM) | MIC (Candida albicans; Candida albicans A 3169, read-out: MIC values): 6 µg/mL (≈ 21.6 µM) | MIC (Candida albicans; Candida albicans A 3171, read-out: MIC values): 6 µg/mL (≈ 21.6 µM) | MIC (Candida albicans; Candida albicans A 3184, read-out: MIC values): 6 µg/mL (≈ 21.6 µM) | MIC (Candida albicans; Candida albicans A 3190, read-out: MIC values): 12.5 µg/mL (≈ 45.1 µM) | MIC (Candida albicans; Candida albicans A 3191, read-out: MIC values): 25 µg/mL (≈ 90.1 µM) | MIC (Candida albicans; Candida albicans A 3192, read-out: MIC values): 6 µg/mL (≈ 21.6 µM) | MIC (Candida albicans; Candida albicans A 3194, read-out: MIC values): 12.5 µg/mL (≈ 45.1 µM) | MIC (Candida albicans; Candida albicans A 3196, read-out: MIC values): 25 µg/mL (≈ 90.1 µM) | MIC (Pasteurella multocida; Pasteurella multocida A 723): 6 µg/mL (≈ 21.6 µM) | MIC ([1]; Streptococcus haemolyticus A 1088): 100 µg/mL (≈ 361 µM) | MIC (Trichophyton equinum; Trichophyton equinum 182-76, read-out: MIC values): 25 µg/mL (≈ 90.1 µM) | MIC (Trichophyton equinum; Trichophyton equinum 441-51, read-out: MIC values): 3 µg/mL (≈ 10.8 µM) | MIC ([2]; Trichophyton mentagrophytus 367-68, read-out: MIC values): 25 µg/mL (≈ 90.1 µM) | MIC ([2]; Trichophyton mentagrophytus 421-67, read-out: MIC values): 25 µg/mL (≈ 90.1 µM) | MIC ([2]; Trichophyton mentagrophytus A 3252, read-out: MIC values): 25 µg/mL (≈ 90.1 µM) | MIC ([2]; Trichophyton mentagrophytus R 177, read-out: MIC values): 25 µg/mL (≈ 90.1 µM) | MIC ([2]; Trichophyton mentagrophytus R 178, read-out: MIC values): 50 µg/mL (≈ 180 µM) | MIC (Trichophyton quickeaneum; Trichophyton quickeaneum A 2040): 25 µg/mL (≈ 90.1 µM) | MIC (Trichophyton rubrum; Trichophyton rubrum 218-65, read-out: MIC values): 3 µg/mL (≈ 10.8 µM) | MIC (Trichophyton rubrum; Trichophyton rubrum 494-62, read-out: MIC values): 25 µg/mL (≈ 90.1 µM) | MIC (Trichophyton rubrum; Trichophyton rubrum A 810, read-out: MIC values): 12.5 µg/mL (≈ 45.1 µM) | MIC ([3]; Trichophyton schoenleinii 435-63): 6 µg/mL (≈ 21.6 µM) | MIC (Trichophyton tonsurans; Trichophyton tonsurans 561-50): 0.4 µg/mL (≈ 1.44 µM) | MIC (Trichophyton verrucosum; Trichophyton verrucosum 134-66, read-out: MIC values): 3 µg/mL (≈ 10.8 µM) | MIC (Trichophyton verrucosum; Trichophyton verrucosum A 2922, read-out: MIC values): 1.5 µg/mL (≈ 5.41 µM) | MIC (Trichophyton violoceum; Trichophyton violoceum 442-62): 12.5 µg/mL (≈ 45.1 µM)
